Values after ≈ are worked out from the molar mass of the structure shown.
Key:
[1] = assay type: in vivo; conditions: cat, intravenous; for preferential route of elimination (in words): tritium-marked drug; for Biliary Elimination: tritium-marked drug in feces; for Biliary Elimination / Renal Elimination: % of activity originally injected; for Renal Elimination: tritium-marked drug in urine
Method: 1. The elimination rate of both drugs in the cat was tested by intravenously injecting a fixed amount of the drugs into the cat and recording the amount of tritium-marked drug appearing in the urine and feces. The results are stated as a percentage of the activity of the tritium-marked glycoside originally injected.

[2] = system: papillary muscle of the guinea pig; assay: inotropic effect on the papillary muscle of the guinea pig in vitro; conditions: Cavia porcellus, 40% ethanol and 60% water mixture, read-out: ED50 (amount of drug necessary to increase the contractile force of the muscle by 50%)
Method: 2. The inotropic effect of both drugs was tested on the papillary muscle of the guinea pig in vitro. The muscle was connected to a recording device and then placed in a bath of 0.1% solution of the drug to be tested in a mixture of 40% ethanol and 60% water. This solution was gradually diluted with water and a dosage versus contraction graph plotted. The amount of drug necessary to increase the contractile force of the muscle by 50% (ED50) was then calculated.

SMILES | preferential route of elimination (in words) [1] | Biliary Elimination [1] | Renal Elimination [1] | EC50 [2]
COC1CC(OC2CCC3(C)C(CCC4C3CCC3(C)C(C5=CC(=O)OC5)C(OC(C)=O)CC43O)C2)OC(C)C1N (centres unmarked) [4'-amino-4'-desoxy-oleandrin] | preferentially eliminated by the biliary system | 11.1% | 2.5% | 0.13 µg/mL (≈ 0.226 µM)
C[C@H]1O[C@@H](O[C@H]2[C@@H](O)C[C@H](O[C@H]3[C@@H](O)C[C@H](O[C@H]4CC[C@@]5(C)[C@H](CC[C@@H]6[C@@H]5C[C@@H](O)[C@]5(C)[C@@H](C7=CC(=O)OC7)CC[C@]65O)C4)O[C@@H]3C)O[C@@H]2C)C[C@H](O)[C@@H]1O [digoxin] | preferentially eliminated by the renal system | 4.7% | 6.3% | 1.1 µg/mL (≈ 1.41 µM)
